Columns and labels:
[1] = system: 6 Hz 44 mA animal model; test: 6 Hz 44 mA psychomotor seizure test (ETSP anticonvulsant screening); assay type: in vivo, Carworth Farms no. 1 (CF1) mice; conditions: 300 mg/kg, ip, mice
Description: (§1) Initial evaluation for anticonvulsant activity was done by the Epilepsy Therapy Screening Program Branch, National Institute of Neurological Disorders and Stroke. Phase I evaluation included three tests: maximal electroshock (MES), 6 Hz, and rotarod test for neurological toxicity (Tox). The studies were done in normal adult male Carworth Farms no. 1 (CF1) mice using four or more mice pre-test. Intraperitoneal (ip) administration of the test compounds was carried out as a suspension in 0.5% methylcellulose. The compounds were tested at doses ranging from 30 mg/kg to 300 mg/kg. The animals were pretreated with the test compound at time intervals of 0.5 h and 2 h. The rotarod neurologic toxicity test was completed at each dose and time point. The MES test is a high frequency (60 Hz), short duration ([…]) stimulus delivered through corneal electrodes in normal rodents while the 6 Hz 44 mA psychomotor test is a long duration (3 s) and low frequency (6 Hz). Compounds active in the MES Identification Phase tests are screened for their ability to block seizures induced in the 6 Hz psychomotor focal seizures animal model of epilepsy. The compounds effective in the 6-Hz model during the Identification phase become candidates for advanced screening in the Differentiation Phase.

[2] = system: maximal electroshock (MES) model; test: maximal electroshock (MES) test (ETSP anticonvulsant screening); assay type: in vivo, Carworth Farms no. 1 (CF1) mice; conditions: ip, mice; for animals protected in MES model: 300 mg/kg
Description: as §1

O=C1C=C(NC(=O)c2ccc(C(F)(F)F)cc2)CC(C(F)(F)F)C1 (stereo not shown) [Compound 7, N-(3-oxo-5-(trifluoromethyl)cyclohex-1-en-1-yl)-4 (trifluoro-methyl)-benzamide]
25%: protection in 6 Hz 44 mA model [1] | protection in MES model ([2]; 100 mg/kg, after 2 h) | animals protected in MES model ([2]; 0.5 h) | animals protected in MES model ([2]; 2 h)

— patent publication US20250296910A1, “BENZAMIDE ENAMINONE DERIVATIVES AND METHODS OF USE THEREOF” (University of Maryland, Eastern Shore, priority 2022, published 2025)
